The target of test [1] is T1, human Cot catalytic domain (30-397 amino acids) (Homo sapiens, UniProt P41279).
T1 construct: Purified recombinant human Cot catalytic domain (30-397 amino acids) was purchased from Cama Biosciences; purchased Cama Biosciences (so in the source)
The test is described as follows: High Throughput Cot Biochemical Assay (KinEASE TR-FRET). The note with it: read-out: IC50 HTRF. An outline of the steps:
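Reaction of 5 nM recombinant human Cot catalytic domain (aa 30-397) with 1 μM STK3 peptide (XL665-labeled) and 400 μM ATP in 10 mM MOPS pH 7.0, 10 mM MgOAc, 1 mM DTT, 0.5 mg/mL BSA, 0.1% DMSO. Phosphopeptide detected by TR-FRET with europium anti-phospho antibody.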

The test system of test [2] is TNFα production in LPS-stimulated human monocytes. Put plainly: Cot Monocyte TNFα Cell Based Assay. The note with it: read-out: EC50 TNF. The method, boiled down: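 Cells at 5,000/well were pretreated with compound for 1 h at 37 °C (0.5% DMSO final), then stimulated with 50 pg/ml LPS for 4 h at 37 °C. Supernatant TNFα was measured by two-antibody TR-FRET after overnight room-temperature incubation; values are percent of control between unstimulated and stimulated wells.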

The mark [3] stands for this setting: Cot biochemical HTRF (KinEASE TR-FRET) assay.
Where [4] appears, read: Homo sapiens, Monocyte, TNFα in LPS-stimulated human monocytes.
The mark [5] stands for this setting: Cot KinEASE TR-FRET (HTRF) biochemical assay, 400 μM ATP.
Where [6] appears, read: Cot KinEASE TR-FRET, 400 μM ATP.
[7] abbreviates: Homo sapiens, Monocyte, LPS-stimulated human monocytes, TNFα TR-FRET.

By IC50 is commonly meant the concentration at which inhibition is half-maximal. A word on the EC50: it is the concentration that produces a half-maximal response.

SMILES strings stand for the structures. Read-outs that look alike come from different tables or passages of the source.

T1 sequence (P41279 30-397): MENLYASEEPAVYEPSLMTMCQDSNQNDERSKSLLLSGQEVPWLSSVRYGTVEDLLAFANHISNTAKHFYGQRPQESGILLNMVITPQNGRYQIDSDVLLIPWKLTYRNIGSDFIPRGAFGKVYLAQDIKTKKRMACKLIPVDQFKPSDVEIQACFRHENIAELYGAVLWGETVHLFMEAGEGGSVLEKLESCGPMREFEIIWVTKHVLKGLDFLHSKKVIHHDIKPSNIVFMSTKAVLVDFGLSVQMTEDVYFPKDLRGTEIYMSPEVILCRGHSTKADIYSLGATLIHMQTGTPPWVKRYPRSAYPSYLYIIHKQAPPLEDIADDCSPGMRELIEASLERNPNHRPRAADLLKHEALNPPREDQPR

For `CC(C)(C)N1CCC(n2cc([C@@H](Nc3cc(Cl)c4ncc(C#N)c(Nc5cc(F)c(F)cc5F)c4c3)c3ccc(Cl)cc3)nn2)CC1` [Example 651, (S)-6-(((1-(1-(tert-butyl)piperidin-4-yl)-1H-1,2,3-triazol-4-yl)(4-chlorophenyl)methyl)amino)-8-chloro-4-((2,4,5-trifluorophenyl)amino)quinoline-3-carbonitrile], the IC50 in test [1] (setting [3]) worked out at 52 nM. Besides, the EC50 in test [2] (setting [4]) is 10600 nM.
For the molecule `Cc1ccc(CNc2c(C#N)cnc3c(Cl)cc(N[C@@H](c4ccc(Cl)cc4)c4cn(C5CCN(C(C)(C)C)CC5)nn4)cc23)cc1` [Example 678, (S)-6-(((1-(1-(tert-butyl)piperidin-4-yl)-1H-1,2,3-triazol-4-yl)(4-chlorophenyl)methyl)amino)-8-chloro-4-((4-methylbenzyl)amino)quinoline-3-carbonitrile], in test [1] (setting [3]), the IC50 was determined as 1430 nM. The EC50 in test [2] (setting [4]) stood at 5690 nM.
`CC[C@@H](Nc1c(C#N)cnc2c(Cl)cc(N[C@@H](c3ccc(F)cc3)c3cn(CC(=O)O)nn3)cc12)c1ccccc1` [Example 115, 2-(4-((S)-((8-chloro-3-cyano-4-(((R)-1-phenylpropyl)amino)quinolin-6-yl)amino)(4-fluorophenyl)methyl)-1H-1,2,3-triazol-1-yl) acetic acid]: the IC50 in test [1] (setting [5]) was determined as 3 nM. Besides, in test [2] (setting [4]), the EC50 was > 10000 nM.
As for `CC(C)(C)CNc1c(C#N)cnc2c(C#N)cc(N[C@H](c3cn(C4(CF)CC4)nn3)c3ccccc3Cl)cc12` [Example 1036, (S)-6-(((2-chlorophenyl)(1-(1-(fluoromethyl)cyclopropyl)-1H-1,2,3-triazol-4-yl)methyl)amino)-4-(neopentylamino)quinoline-3,8-dicarbonitrile], the IC50 in test [1] (setting [6]) turned out to be 9 nM. Also, in test [2] (setting [7]), the EC50 was 195 nM.
For `Cc1c([C@H](Nc2cc(Cl)c3ncc(C#N)c(NCC(C)(C)C)c3c2)c2cn(C3(C(F)(F)F)CC3)nn2)cccc1-n1cccn1` [Example 1038, (S)-8-chloro-6-(((2-methyl-3-(1H-pyrazol-1-yl)phenyl)(1-(1-(trifluoromethyl)cyclopropyl)-1H-1,2,3-triazo1-4-yl)methyl)amino)-4-(neopentylamino)quinoline-3-carbonitrile] the same measures were 10 nM and 566 nM.
Regarding `CC[C@@H](Nc1c(C#N)cnc2c(Cl)cc(N[C@H](c3cn(C4(C#N)CC4)nn3)c3ccccc3Cl)cc12)c1ccccc1` [Example 49, 8-chloro-6-(((S)-(2-chlorophenyl)(1-(1-cyanocyclopropyl)-1H-1,2,3-triazol-4-yl)methyl)amino)-4-(((R)-1-phenylpropyl)amino) quinoline-3-carbonitrile], the IC50 in test [1] (setting [5]) was determined as 26 nM. Moreover, in test [2] (setting [4]), the EC50 came to 330 nM.
For `CC[C@@H](Nc1c(C#N)cnc2c(Cl)cc(N[C@@H](c3cccc(F)c3)c3cn(C4CC4)nn3)cc12)c1ccccc1` [Example 272, 8-chloro-6-(((S)-(1-cyclopropyl-1H-1,2,3-triazol-4-yl)(3-fluorophenyl)methyl)amino)-4-(((R)-1-phenylpropyl)amino)quinoline-3-carbonitrile] the same measures were 12 nM and 215 nM.
For `CC(C)(C)N1CCC(n2cc([C@@H](Nc3cc(Cl)c4ncc(C#N)c(NC5CCCC(O)C5)c4c3)c3ccc(F)cc3)nn2)CC1` (stereo partly drawn) [Example 440, 6-(((S)-(1-(1-(tert-butyl)piperidin-4-yl)-1H-1,2,3-triazol-4-yl)(4-fluorophenyl)methyl)amino)-8-chloro-4-((3-hydroxycyclohexyl)amino) quinoline-3-carbonitrile], in test [1] (setting [3]), the IC50 came out at 46 nM. Also, the concentration for a half-maximal effect (EC50) in test [2] (TNFα in LPS-stimulated human monocytes) was 371 nM.
Take `[2H][C@](Nc1cc(Cl)c2ncc(C#N)c(NC3CC34CCCCC4)c2c1)(c1ccc(F)cc1)c1cn(C2CC2)nn1` (stereo partly drawn) [Example 143, 8-chloro-6-(((S)-(1-cyclopropyl-1H-1,2,3-triazol-4-yl)(4-fluorophenyl)methyl-d)amino)-4-(spiro[2.5]octan-1-ylamino)quinoline-3-carbonitrile]: the IC50 in test [1] (setting [5]) is 99 nM. Further, the EC50 in test [2] (setting [4]) was 1170 nM.
Regarding `[2H][C@](Nc1cc(Cl)c2ncc(C#N)c(Nc3cccc4ccccc34)c2c1)(c1ccc(F)cc1)c1cn(C2CC2)nn1` [Example 933, (S)-8-chloro-6-(((1-cyclopropyl-1H-1,2,3-triazol-4-yl)(4-fluorophenyl)methyl-d)amino)-4-(naphthalen-1-ylamino) quinoline-3-carbonitrile], the half-inhibitory concentration (IC50) in test [1] (setting [6]) amounted to 314 nM. Besides, the EC50 in test [2] (setting [7]) is ≥ 1000 nM.
Turning to `N#Cc1cnc2c(Cl)cc(N[C@@H](c3ccc(Cl)cc3)c3c[nH]nn3)cc2c1Nc1ccc(Cl)c(Cl)c1` [Example 688, (S)-8-chloro-6-(((4-chlorophenyl)(1H-1,2,3-triazol-4-yl)methyl)amino)-4-((3,4-dichlorophenyl)amino)quinoline-3-carbonitrile], the IC50 in test [1] (setting [3]) was 621 nM. Moreover, in test [2] (setting [4]), the EC50 was 1250 nM.
For `CC(C)(C)N1CCC(n2cc([C@@H](Nc3cc(Cl)c4ncc(C#N)c(NCC5CCCCO5)c4c3)c3ccc(F)cc3)nn2)CC1` (stereo partly drawn) [Example 437, 6-(((S)-(1-(1-(tert-butyl)piperidin-4-yl)-1H-1,2,3-triazol-4-yl)(4-fluorophenyl)methyl)amino)-8-chloro-4-(((tetrahydro-2H-pyran-2-yl)methyl)amino)quinoline-3-carbonitrile] the same measures were 448 nM and 3910 nM.
The like results for `CN(C)C(=O)c1cccc([C@H](Nc2cc(Cl)c3ncc(C#N)c(Nc4ccc(Cl)c(Cl)c4F)c3c2)c2c[nH]nn2)c1` [Example 573, (S)-3-(((8-chloro-3-cyano-4-((3,4-dichloro-2-fluorophenyl)amino)quinolin-6-yl)amino)(1H-1,2,3-triazol-4-yl)methyl)-N,N-dimethylbenzamide] were, in that order, 10 nM and 462 nM.
For `CC[C@@H](Nc1c(C#N)cnc2c(Br)cc(N[C@@H](c3cccc(C(N)=O)c3)c3cn(C4CC4)nn3)cc12)c1ccccc1` [Example 944, 3-((S)-((8-bromo-3-cyano-4-(((R)-1-phenylpropyl)amino)quinolin-6-yl)amino)(1-cyc1opropyl-1H-1,2,3-triazol-4-yl)methyl)benzamide], the IC50 in test [1] (setting [6]) amounted to 1 nM. For the same molecule, the EC50 in test [2] (setting [7]) was determined as 51 nM.
On to `CC(C)(C)N1CCC(n2cc([C@@H](Nc3cc(Cl)c4ncc(C#N)c(Nc5cnc(Cl)c(F)c5)c4c3)c3ccccc3)nn2)CC1` [Example 521, (S)-6-(((1-(1-(tert-butyl)piperidin-4-yl)-1H-1,2,3-triazol-4-yl)(phenyl)methyl)amino)-8-chloro-4-((6-chloro-5-fluoropyridin-3-yl)amino)quinoline-3-carbonitrile], for which, in test [1] (setting [3]), the IC50 amounted to 41 nM. The EC50 in test [2] (setting [4]) was 934 nM.
Take `Cc1c(C#N)cccc1[C@H](Nc1cc(Cl)c2ncc(C#N)c(NCC(C)(C)C)c2c1)c1nnn(C2(C(F)F)CC2)c1F` [Example 1168, (S)-8-chloro-6-(((3-cyano-2-methylphenyl)(1-(1-(difluoromethyl)cyclopropyl)-5-fluoro-1H-1,2,3-triazol-4-yl)methyl)amino)-4-(neopentylamino)quinoline-3-carbonitrile]: in test [1] (setting [6]), the IC50 came to 4 nM. The EC50 in test [2] (setting [7]) was determined as 75 nM.
